≈ marks a conversion by molar mass, not a printed value.

Assay [1] has as its system Acinetobacter baumannii. Description: Antibacterial activity against Acinetobacter baumannii. In kind it is functional.
Assay [2] has as its system Acinetobacter baumannii. Description: Antibacterial activity against Acinetobacter baumannii AB-5075 assessed as reduction in bacterial growth incubated for 18 to 24 hrs by broth micro-dilution assay. The assay is classed as functional, organism-based. For orientation: Broth dilution looks for growth in wells or tubes with falling amounts of substance.
In assay [3] the test system is Acinetobacter baumannii. Description: Antibacterial activity against Acinetobacter baumannii ATCC 17978 assessed as reduction in bacterial growth incubated for 24 hrs by broth dilution assay. The assay is classed as functional.
The subject of the next assay is Escherichia coli. Description: Antibacterial activity against Escherichia coli. In kind it is functional.
Another assay deals with Klebsiella pneumoniae. Description: Antibacterial activity against Klebsiella pneumoniae. In kind it is functional.
Assay [4] relates to Acinetobacter baumannii. Description: Antibacterial activity against Acinetobacter baumannii ATCC 17978 assessed as reduction in microbial growth incubated for 24 hrs Mueller-Hintorn broth dilution method. The note with it: ATCC 17978, 24 h. In kind it is functional, organism-based.
Another assay addresses DNA gyrase (Escherichia coli, UniProt P0AES4+P0AES6). Description: Inhibition of Escherichia coli DNA gyrase. In kind it is protein-complex assay.
For assay [5], the system named is Acinetobacter baumannii. Description: Antibacterial activity against multidrug-resistant Acinetobacter baumannii assessed as inhibition of bacterial growth incubated for 24 hrs by broth dilution assay. In kind it is functional.
Assay [6] relates to Acinetobacter baumannii. Description: Synergistic antibacterial activity against Acinetobacter baumannii assessed as inhibition of bacterial growth incubated for 18 to 24 hrs by Checkerboard assay relative to control. The assay is classed as functional. The arrangement: scale not given: the % may be the effect or the level left. The note with it: time 18-24 hrs.
Assay [7] concerns Acinetobacter baumannii. Description: Bactericidal activity against Acinetobacter baumannii. In kind it is functional.
Assay [8] has as its system Staphylococcus aureus. Description: Antibacterial activity against Staphylococcus aureus. In kind it is functional.
Assay [9] has as its system Acinetobacter baumannii. Description: Synergistic antibacterial activity against Acinetobacter baumannii clinical isolates assessed as inhibition of bacterial growth incubated for 18 to 24 hrs by Checkerboard assay relative to control. The assay is classed as functional. Further details: scale not given: the % may be the effect or the level left. Particulars: time 18-24 hrs.

Assay [10] concerns Acinetobacter baumannii. Description: Antibacterial activity against Acinetobacter baumannii assessed as zone of inhibition. In kind it is functional.
Assay [11] concerns Staphylococcus aureus. Description: Antibacterial activity against Staphylococcus aureus assessed as reduction in microbial growth. The assay is classed as functional.
The test system of assay [12] is Acinetobacter baumannii. Description: Antibacterial activity against multidrug-resistant Acinetobacter baumannii ATCC 17978 assessed as reduction in bacterial growth incubated for 24 hrs by micro-broth dilution method. The assay is classed as functional.
Assay [13] has as its system Acinetobacter baumannii. Description: Antibacterial activity against Acinetobacter baumannii ATCC 17978 assessed as bacterial eradication. In kind it is functional.
Assay [14] has as its system Acinetobacter baumannii. Description: Antibacterial activity against Acinetobacter baumannii ATCC 17978 assessed as reduction in bacterial growth incubated for 24 hrs by micro-broth dilution method. The assay is classed as functional.
Assay [15] relates to Acinetobacter baumannii. Description: Antibacterial activity against Acinetobacter baumannii ATCC 17978 assessed as inhibition of bacterial growth incubated for 18 to 20 hrs by two fold serial dilution assay. In kind it is functional. Particulars: time 18-20 hrs.
In assay [16] the test system is Acinetobacter baumannii. Description: Antibacterial activity against Acinetobacter baumannii BAA-1605 assessed as reduction in microbial growth incubated for 24 hrs by broth micro-dilution method. In kind it is functional.
Assay [17] relates to Acinetobacter baumannii. Description: Antibacterial activity against Acinetobacter baumannii ATCC 17978 assessed as reduction in microbial growth. The assay is classed as functional.

Turning to `O=C(O)c1ccc(-c2nn(-c3ccc(C(=O)O)cc3)cc2/C=N/Nc2ccc(Cl)cc2)cc1`, the MIC (as a rule, the lowest concentration found to suppress growth) in the assay on Acinetobacter baumannii [1] stood at 0.79 µg/mL (≈ 1.71 µM).
On to `CN(C)c1cc(NC(=O)CNC(C)(C)C)c(O)c2c1C[C@H]1C[C@H]3[C@H](N(C)C)C(O)=C(C(N)=O)C(=O)[C@@]3(O)C(O)=C1C2=O` [TIGECYCLINE], for which the MIC with Acinetobacter baumannii [1] is 0.5 µg/mL (≈ 0.854 µM). Also, the IC50 (commonly the concentration that gives 50% inhibition) with Acinetobacter baumannii [2] worked out at 0.15 µM.
With `CNCC1=CCCN(c2c(F)cn3c(=O)c(C(=O)O)cc(C4CC4)c3c2C)C1`, in the assay on Acinetobacter baumannii [3], the MIC worked out at 0.16 µM (≈ 0.0617 µg/mL).
Regarding `Cc1c(CN(C)C(=O)/C=C/c2cnc3c(c2)CC(N)C(=O)N3)oc2ccccc12` (configuration not stated), the MIC in the assay on Acinetobacter baumannii [1], against Escherichia coli and against Klebsiella pneumoniae was 4 µg/mL (≈ 10.2 µM) in each case.
On to `O=c1[nH]c(=O)n(C2OC(CO)c3ccccc32)cc1F` (configuration not stated), for which the IC50 in the assay with Acinetobacter baumannii [4] was less than 2 µM.
`Cc1[nH]c(C(=O)Nc2nc3cc(NCc4ccccc4)c(C(=O)O)cc3s2)c(Cl)c1Cl` came in with an IC50 at DNA gyrase of less than 0.071 µM. The compound further yielded an MIC with Acinetobacter baumannii [1] of 8 µg/mL (≈ 16.8 µM).
As for `Cc1cc(-n2sc(Cl)c(C)c2=O)ccc1Cl`, in the assay on Acinetobacter baumannii [5], the MIC amounted to 2 µg/mL (≈ 7.29 µM).
For `COCCCNc1cc2nc(NC(=O)c3[nH]c(C)c(Cl)c3Cl)sc2cc1C(=O)O`, in the assay on Acinetobacter baumannii [1], the lowest concentration to inhibit growth (MIC) was 4 µg/mL (≈ 8.75 µM).
For `CC(C)(C)n1cc(C(=O)O)c(=O)c2cc(F)c(Cl)nc21`, in the assay with Acinetobacter baumannii [4], the half-inhibitory concentration (IC50) was less than 2 µM.
For `CN(C)[C@@H]1C(O)=C(C(N)=O)C(=O)[C@@]2(O)C(O)=C3C(=O)c4c(O)cccc4[C@@](C)(O)[C@H]3C[C@@H]12` [TETRACYCLINE], the IC50 with Acinetobacter baumannii [2] amounted to 0.04 µM.
With `C[C@@H](O)[C@H]1C(=O)N2C(C(=O)O)=C(S[C@@H]3CN[C@H](C(=O)N(C)C)C3)[C@H](C)[C@H]12` [MEROPENEM], the MIC against Acinetobacter baumannii [1] was more than 8 µg/mL.
In the case of `Cc1c(N2C[C@H](C)N[C@@H](C)C2)c(F)cn2c(=O)c(C(=O)O)cc(C3CC3)c12`, in the assay on Acinetobacter baumannii [3], the MIC is 0.31 µM (≈ 0.116 µg/mL).
As to `O=C1NC2(CCC3(CC2)OCCO3)NN1c1ccc(Cl)cc1`, the concentration for half-maximal inhibition (IC50) with Acinetobacter baumannii [4] is 10.8 µM.
Turning to `CC1(C)[C@H](C(=O)O)N2C(=O)C[C@H]2S1(=O)=O` [SULBACTAM], the Activity in the assay on Acinetobacter baumannii [6] was approximately 70%.
Regarding `CC[C@H]1OC(=O)[C@H](C)[C@@H](O[C@H]2C[C@@](C)(OC)[C@@H](O)[C@H](C)O2)[C@H](C)[C@@H](O[C@@H]2O[C@H](C)C[C@H](N(C)C)[C@H]2O)[C@](C)(O)C[C@@H](C)CN(C)[C@H](C)[C@@H](O)[C@]1(C)O` [AZITHROMYCIN], the concentration for half-maximal inhibition (IC50) in the assay with Acinetobacter baumannii [2] is 1.1 µM.
H-RWKIFKKIPKFLHSAKKW-NH2: in the assay with Acinetobacter baumannii [7], the minimal inhibitory concentration (MIC) was found to be 4 µg/mL.
In the assay on Acinetobacter baumannii [1], `C[C@@H](O)[C@H]1C(=O)N2C(C(=O)O)=C(SCCNC=N)C[C@H]12` [IMIPENEM ANHYDROUS] displayed an MIC of more than 8 µg/mL.
For the compound `Cc1cc(=O)n(C)c2c3c4c(cc12)c(C)cc(=O)n4C(CN)CO3` (configuration not stated), the minimal inhibitory concentration (MIC) turned out to be 2 µg/mL (≈ 6.15 µM) in the assay on Acinetobacter baumannii [1], 0.5 µg/mL (≈ 1.54 µM) against Escherichia coli and 0.03 µg/mL (≈ 0.0922 µM) in the assay with Staphylococcus aureus [8].
Regarding `Cc1cc(=O)n(C)c2c3c4c(cc12)c(C)cc(=O)n4CCO3`, the MIC in the assay on Acinetobacter baumannii [1] was more than 32 µg/mL; in the assay on Escherichia coli, more than 32 µg/mL; against Staphylococcus aureus [8] it was 0.06 µg/mL (≈ 0.202 µM).
`NCC[C@H](O)C(=O)N[C@@H]1C[C@H](N)[C@@H](O[C@H]2O[C@H](CN)[C@@H](O)[C@H](O)[C@H]2O)[C@H](O)[C@H]1O[C@H]1O[C@H](CO)[C@@H](O)[C@H](N)[C@H]1O` [AMIKACIN]: the Activity in the assay with Acinetobacter baumannii [9] is on record as 46.2%.
`O=c1[nH]cc(F)c(=O)[nH]1` [FLUOROURACIL]: in the assay on Acinetobacter baumannii [2], the IC50 stood at 1.8 µM.
For `O=C(O)c1ccc(-n2cc(/C=N/Nc3ccc(Cl)cc3)c(-c3ccccc3)n2)cc1`, the MIC with Acinetobacter baumannii [1] was determined as 4 µg/mL (≈ 9.6 µM).
For the compound `O=C(O)c1ccc(-n2cc(/C=N/Nc3ccccc3)c(-c3ccccc3)n2)cc1`, the “inhibition zone (IZ)” value in the assay on Acinetobacter baumannii [10] is 28 mm.
Take `Cn1cnc2c3c(Cl)c4ccccc4nc3ccc21`: in the assay on Staphylococcus aureus [11], the MBC (commonly the smallest concentration meeting the test's criterion for killing) amounted to 2 µg/mL.
For the compound `O=C(O)c1ccc(-c2nn(-c3ccc(C(=O)O)cc3)cc2/C=N/Nc2cccc(F)c2)cc1`, in the assay on Acinetobacter baumannii [1], the MIC is 1.56 µg/mL (≈ 3.51 µM).
For the compound THIMEROSAL, the MIC in the assay on Acinetobacter baumannii [5] was found to be 1 µg/mL.
`Oc1cccc(/C=N/Nc2ccccn2)c1O` had an MIC against Acinetobacter baumannii [1] of 25 µg/mL (≈ 109 µM).
`CN(C)CCCN1c2ccccc2Sc2ccc(Cl)cc21` [CHLORPROMAZINE]: the MIC in the assay with Acinetobacter baumannii [12] and in the assay on Acinetobacter baumannii [14] was 100 µg/mL (≈ 314 µM) in each case. In the assay on Acinetobacter baumannii [13], the MBEC amounted to 0.3 g/L.
With `Brc1ccc2[nH]c(-c3ccncc3)cc2c1`, the MIC in the assay on Acinetobacter baumannii [15] was less than 2 µg/mL.
For the compound `CN1CCN(CCCN2c3ccccc3Sc3ccc(C(F)(F)F)cc32)CC1` [TRIFLUOPERAZINE], the MIC in the assay with Acinetobacter baumannii [12] and in the assay on Acinetobacter baumannii [14] was 100 µg/mL (≈ 245 µM) throughout. Further, the MBEC with Acinetobacter baumannii [13] worked out at 0.3 g/L.
For the compound `Cc1c(Cl)sn(-c2ccc(Cl)cc2)c1=O`, the minimum inhibitory concentration (MIC) in the assay with Acinetobacter baumannii [5] was 0.25 µg/mL (≈ 0.961 µM).
`O=C(O)c1ccc(-n2cc(/C=N/Nc3ccc(F)cc3)c(-c3ccccc3)n2)cc1` had an MIC against Acinetobacter baumannii [1] of 8 µg/mL (≈ 20 µM).
For `Cc1c(N2C[C@@H](N)[C@@H](C)C2)c(F)cn2c(=O)c(C(=O)O)cc(C3CC3)c12`, in the assay with Acinetobacter baumannii [15], the MIC came out at 0.09 µg/mL (≈ 0.25 µM).
On the same count and under the same terms, the result for `Cc1c(N2C[C@H](N)C3(CC3)C2)c(F)cn2c(=O)c(C(=O)O)cc(C3CC3)c12` reads 0.19 µg/mL (≈ 0.512 µM).
`CO[C@@]12[C@H](COC(N)=O)C3=C(C(=O)C(C)=C(N)C3=O)N1C[C@@H]1N[C@@H]12` [MITOMYCIN]: the MIC in the assay on Acinetobacter baumannii [16] is not above 8 µg/mL.
`NNC(=O)CSc1ccc([N+](=O)[O-])cc1Cl`: in the assay with Acinetobacter baumannii [4], the concentration for half-maximal inhibition (IC50) turned out to be 11.7 µM.
Turning to `CSc1ccc2c(c1)N(CCC1CCCCN1C)c1ccccc1S2` (configuration not stated) [THIORIDAZINE], the MIC in the assay on Acinetobacter baumannii [12] and in the assay on Acinetobacter baumannii [14] was 100 µg/mL (≈ 270 µM) in each case. The MBEC in the assay with Acinetobacter baumannii [13] is reported as 0.3 g/L.
As for `O=[N+]([O-])c1ccc(O)c(/C=N/Nc2ccccn2)c1`, the MIC in the assay with Acinetobacter baumannii [1] is 25 µg/mL (≈ 96.8 µM).
As for `CC(CN1c2ccccc2Sc2ccccc21)N(C)C` (configuration not stated) [PROMETHAZINE], the MIC with Acinetobacter baumannii [12] and in the assay on Acinetobacter baumannii [14] was 100 µg/mL (≈ 352 µM) in each case. Besides, the MBEC in the assay on Acinetobacter baumannii [13] stood at 0.3 g/L.
With `Cc1c(CN(C)C(=O)/C=C/c2cnc3c(c2)CCC(=O)N3)oc2ccccc12` [AFN-1252], the MIC with Escherichia coli was more than 32 µg/mL.
As to `CNc1nc(NCc2ccccc2)nc2ccc(C)cc12`, in the assay with Acinetobacter baumannii [17], the MIC is 1 µM.

Source of the values: ChEMBL document CHEMBL6109037, “Understanding the mechanisms of antimicrobial resistance and potential therapeutic approaches against the Gram-negative pathogen Acinetobacter baumannii” (RSC Med Chem, 2024).
